In US9988635B2, “Modulation of growth hormone receptor expression and insulin-like growth factor expression” (Antisense Therapeutics Limited, priority 2003, dated 2018):
In the oligonucleotide strings, read from the 5' end, every base follows the letter of its sugar. An asterisk marks phosphorothioate; unmarked linkages are phosphodiester. Other units and linkages are bracketed, terminal groups are in braces. A string of capitals states the bases alone. e = 2'-O-(2-methoxyethyl) (MOE); [5mC] = 5-methylcytosine; d = 2'-deoxy (DNA)

These substances were tested on mouse growth hormone receptor mRNA (assay: Inhibition of mouse growth hormone receptor mRNA levels in b.END cells, quantitative real-time PCR, incl. dose-response). Conditions: averages from three experiments.
Type: cell-based
Description: The mouse brain endothelial cell line b.END was obtained from Dr. Werner Risau at the Max Plank Instititute (Bad Nauheim, Germany). b.END cells were routinely cultured in DMEM, high glucose (Gibco/Life Technologies, Gaithersburg, Md.) supplemented with 10% fetal calf serum (Gibco/Life Technologies, Gaithersburg, Md.). Cells were routinely passaged by trypsinization and dilution when they reached 90% confluence. Cells were seeded into 96-well plates (Falcon-Primaria #3872) at a density of 3000 cells/well for use in RT-PCR analysis.
When cells reached 65-75% confluency, they were treated with oligonucleotide. For cells grown in 96-well plates, wells were washed once with 100 μL OPTI-MEM™-1 reduced-serum medium (Invitrogen Corporation, Carlsbad, Calif.) and then treated with 130 μL of OPTI-MEM™-1 containing 3.75 μg/mL LIPOFECTIN™ (Invitrogen Corporation, Carlsbad, Calif.) and the desired concentration of oligonucleotide. Cells are treated and data are obtained in triplicate. After 4-7 hours of treatment at 37° C., the medium was replaced with fresh medium. Cells were harvested 16-24 hours after oligonucleotide treatment.
Total RNA was isolated using an RNEASY 96™ kit and buffers purchased from Qiagen Inc. (Valencia, Calif.) following the manufacturer's recommended procedures. Briefly, for cells grown on 96-well plates, growth medium was removed from the cells and each well was washed with 200 μL cold PBS. 150 μL Buffer RLT was added to each well and the plate vigorously agitated for 20 seconds. 150 μL of 70% ethanol was then added to each well and the contents mixed by pipetting three times up and down. The samples were then transferred to the RNEASY 96™ well plate attached to a QIAVAC™ manifold fitted with a waste collection tray and attached to a vacuum source. Vacuum was applied for 1 minute. 500 μL of Buffer RW1 was added to each well of the RNEASY 96™ plate and incubated for 15 minutes and the vacuum was again applied for 1 minute. An additional 500 μL of Buffer RW1 was added to each well of the RNEASY 96™ plate and the vacuum was applied for 2 minutes. 1 mL of Buffer RPE was then added to each well of the RNEASY 96™ plate and the vacuum applied for a period of 90 seconds. The Buffer RPE wash was then repeated and the vacuum was applied for an additional 3 minutes. The plate was then removed from the QIAVAC™ manifold and blotted dry on paper towels. The plate was then re-attached to the QIAVAC™ manifold fitted with a collection tube rack containing 1.2 mL collection tubes. RNA was then eluted by pipetting 140 μL of RNAse free water into each well, incubating 1 minute, and then applying the vacuum for 3 minutes.
Quantitation of growth hormone receptor mRNA levels was accomplished by real-time quantitative PCR using the ABI PRISM™ 7600, 7700, or 7900 Sequence Detection System (PE-Applied Biosystems, Foster City, Calif.) according to manufacturer's instructions. This is a closed-tube, non-gel-based, fluorescence detection system which allows high-throughput quantitation of polymerase chain reaction (PCR) products in real-time. As opposed to standard PCR in which amplification products are quantitated after the PCR is completed, products in real-time quantitative PCR are quantitated as they accumulate. This is accomplished by including in the PCR reaction an oligonucleotide probe that anneals specifically between the forward and reverse PCR primers, and contains two fluorescent dyes. A reporter dye (e.g., FAM or JOE, obtained from either PE-Applied Biosystems, Foster City, Calif., Operon Technologies Inc., Alameda, Calif. or Integrated DNA Technologies Inc., Coralville, Iowa) is attached to the 5′ end of the probe and a quencher dye (e.g., TAMRA, obtained from either PE-Applied Biosystems, Foster City, Calif., Operon Technologies Inc., Alameda, Calif. or Integrated DNA Technologies Inc., Coralville, Iowa) is attached to the 3′ end of the probe. […]
For “227471 (antisense eA*eG*eG*e[5mC]*eA*d[5mC]*dA*dA*dG*dA*dG*dA*dT*d[5mC]*dA*eG*e[5mC]*eT*eT*e[5mC]) [compound 227471]”, the “% INHIB of mouse growth hormone receptor mRNA levels” value (shortened to “% INHIB”) was 52%.
With “227472 (antisense eA*eG*eA*eG*e[5mC]*d[5mC]*dA*dA*dG*dG*dG*dA*dA*dG*d[5mC]*eA*eT*e[5mC]*eA*eT) [compound 227472]” the “% INHIB” value was 42%.
With “227473 (antisense eA*eA*eG*eT*e[5mC]*dA*dA*dT*dG*dT*dT*dT*dG*d[5mC]*d[5mC]*eA*eG*eT*eG*eA) [compound 227473]” the “% INHIB” value was 71%.
In the case of “227474 (antisense eT*eG*eT*e[5mC]*eG*d[5mC]*dT*dT*dA*d[5mC]*dT*dT*dG*dG*dG*e[5mC]*eA*eT*eA*eA) [compound 227474]”, the “% INHIB” value is reported as 68%.
For “227476 (antisense eG*eT*eA*eA*eT*dT*dT*dT*d[5mC]*dT*dT*dG*dG*d[5mC]*dA*eG*eG*eG*e[5mC]*eG) [compound 227476]”, the “% INHIB” value was 41%.
In the case of “227477 (antisense e[5mC]*eA*e[5mC]*eT*eG*dT*dT*d[5mC]*dA*dT*dG*d[5mC]*dT*dG*dT*eA*eA*eT*eT*eT) [compound 227477]”, the “% INHIB” value is reported as 61%.
For “227478 (antisense eT*eT*eT*eT*eT*dG*dG*d[5mC]*dA*dT*d[5mC]*dT*dG*dA*d[5mC]*eT*e[5mC]*eA*e[5mC]*eA) [compound 227478]”, the “% INHIB” value was 68%.
For “227479 (antisense eA*eT*eG*eT*e[5mC]*d[5mC]*dT*d[5mC]*dT*dT*dG*dG*dT*dT*dA*eA*eA*eG*e[5mC]*eT) [compound 227479]”, the “% INHIB” value was 59%.
“227485 (antisense e[5mC]*eG*eT*eG*eG*dT*dG*dT*dA*dG*dT*d[5mC]*dT*dG*dG*eG*eA*e[5mC]*eA*eG) [compound 227485]” was tested, and the “% INHIB” value was 45%.
“227486 (antisense e[5mC]*eG*eG*eT*eG*dT*dG*dA*dA*d[5mC]*d[5mC]*dG*dT*dG*dG*eT*eG*eT*eA*eG) [compound 227486]” was tested, and the “% INHIB” value was 39%.
With “227487 (antisense eT*e[5mC]*eA*eG*eG*d[5mC]*dA*dA*dA*dG*dG*d[5mC]*dA*dA*dA*eG*e[5mC]*eA*eG*eT) [compound 227487]” the “% INHIB” value was 44%.
“227491 (antisense eT*eA*eG*eG*eA*dA*dA*dG*dG*d[5mC]*dT*dA*d[5mC]*dT*dG*e[5mC]*eA*eT*eG*eA) [compound 227491]” was tested, and the “% INHIB” value was 65%.
For “227492 (antisense eT*eA*eA*eA*eA*d[5mC]*dA*dT*dA*dG*dT*dT*dT*dT*dG*eG*eT*eT*eT*eA) [compound 227492]”, the “% INHIB” value was 7%.
For “227493 (antisense eT*e[5mC]*e[5mC]*e[5mC]*eA*dA*d[5mC]*dA*d[5mC]*dA*dG*dA*dT*dT*dT*eA*eA*eA*eA*e[5mC]) [compound 227493]”, the “% INHIB” value was 51%.
In the case of “227494 (antisense e[5mC]*eA*eA*eA*eA*dG*d[5mC]*d[5mC]*dA*d[5mC]*d[5mC]*dT*dG*dA*dT*eT*eG*eT*eT*eT) [compound 227494]”, the “% INHIB” value is reported as 56%.
“227495 (antisense eT*e[5mC]*e[5mC]*eT*eG*dA*dA*d[5mC]*dT*dG*d[5mC]*dA*dA*dA*dA*eG*e[5mC]*e[5mC]*eA*e[5mC]) [compound 227495]” was tested, and the “% INHIB” value was 47%.
For “227496 (antisense eG*e[5mC]*eA*eT*eT*d[5mC]*dA*dA*dT*dT*dT*d[5mC]*d[5mC]*dT*dG*eA*eA*e[5mC]*eT*eG) [compound 227496]”, the “% INHIB” value was 51%.
“227497 (antisense eT*eA*eA*eA*eT*dG*dT*dT*dT*dT*dG*d[5mC]*dA*dT*dA*eT*e[5mC]*e[5mC]*eA*eA) [compound 227497]” was tested, and the “% INHIB” value was 77%.
For “227498 (antisense eT*eT*eG*eT*eA*dA*dA*dA*dA*dT*d[5mC]*dT*dA*dA*d[5mC]*eT*eT*eG*eT*eT) [compound 227498]”, the “% INHIB” value was 49%.
